# In patent US20130338165A1 (Promentis Pharmaceuticals, Inc., priority 2012, published 2013):
# Key:
# [1] = cited from earlier work
# [2] = intravenous administration, clinical experiments; cited from earlier work
# mice treated with MPTP = conditions: cited from earlier work
# brain of gerbils = conditions: systemic administration; cited from earlier work
# brain of rats = conditions: systemic administration; cited from earlier work
# [3] = test system: alpha-synuclein overexpressing mice; conditions: mouse, in vivo; cited from earlier work
# system xc− = molecular target: T1, system xc− (Homo sapiens, UniProt Q9UPY5); assay: in vitro screening assay of system xc− (14C-cystine uptake, 3H-glutamate) in 1321N1 cells; type: cell-based; conditions: human glial cells from brain astrocytoma (1321N1)
# T1 construct: a cell line with high system xc− expression; endogenous in cells; host or cells: 1321N1 human astrocytoma cells
# T1 sequence (Q9UPY5 1-501): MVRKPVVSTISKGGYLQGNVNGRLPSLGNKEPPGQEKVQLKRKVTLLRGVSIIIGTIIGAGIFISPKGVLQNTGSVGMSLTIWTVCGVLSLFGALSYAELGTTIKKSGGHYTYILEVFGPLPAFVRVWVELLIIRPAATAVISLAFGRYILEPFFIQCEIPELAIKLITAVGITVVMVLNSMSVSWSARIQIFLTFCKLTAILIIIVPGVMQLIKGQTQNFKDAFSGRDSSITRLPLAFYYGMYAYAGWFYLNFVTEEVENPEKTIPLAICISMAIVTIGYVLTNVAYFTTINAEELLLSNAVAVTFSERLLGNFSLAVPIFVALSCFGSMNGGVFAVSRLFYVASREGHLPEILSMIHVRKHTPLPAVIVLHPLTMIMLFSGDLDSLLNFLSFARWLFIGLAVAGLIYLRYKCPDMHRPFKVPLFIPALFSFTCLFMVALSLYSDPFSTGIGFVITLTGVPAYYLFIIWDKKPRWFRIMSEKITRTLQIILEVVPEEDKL
# T1 sequence (P08195 1-529 partner): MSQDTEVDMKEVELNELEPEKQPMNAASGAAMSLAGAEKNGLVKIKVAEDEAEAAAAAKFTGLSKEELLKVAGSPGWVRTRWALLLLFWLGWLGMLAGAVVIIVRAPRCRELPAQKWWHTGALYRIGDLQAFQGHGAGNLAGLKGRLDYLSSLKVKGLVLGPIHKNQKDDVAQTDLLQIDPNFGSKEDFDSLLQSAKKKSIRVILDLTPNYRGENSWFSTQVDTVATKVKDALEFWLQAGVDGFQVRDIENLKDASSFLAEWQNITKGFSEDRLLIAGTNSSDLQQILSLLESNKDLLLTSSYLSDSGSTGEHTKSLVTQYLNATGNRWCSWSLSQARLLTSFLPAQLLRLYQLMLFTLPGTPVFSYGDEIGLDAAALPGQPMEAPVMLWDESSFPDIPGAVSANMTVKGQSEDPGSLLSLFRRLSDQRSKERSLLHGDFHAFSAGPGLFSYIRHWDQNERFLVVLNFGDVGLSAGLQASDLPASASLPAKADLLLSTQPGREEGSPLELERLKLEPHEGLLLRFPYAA
# From the text: Using an in vitro screening assay conducted in human glial cells from brain astrocytoma (1321N1), a cell line with high system xc− expression, the compound with the following formula: […]
# [4] = pre-pulse inhibition (PPI) model of antipsychotic-like activity; type: in vivo; conditions: orally-active
# [5] = elevated plus maze (EPM) model of anxiolytic-like activity; type: in vivo; conditions: orally-active
# cells = conditions: cited from earlier work
structure (smiles),measurement,setting,value
N[C@@H](CCC(=O)N[C@@H](CS)C(=O)NCC(=O)O)C(=O)O [glutathione],solubility characteristics,[1],poor
same,reduction of motor impairment and disability,[2],40%
"CC(=O)N[C@@H](CS)C(=O)O [NAC, N-acetylcysteine]",solubility characteristics,[1],poor
same,neuroprotective effect in different MPTP mouse models,"mice treated with MPTP; Aoyama et al., 2008, Perry et al., 1985",partial neuroprotective effect
same,therapeutic potential in MPTP-treated mice,"mice treated with MPTP; mouse, in vivo",exhibited therapeutic potential
same,protection against oxidative stress in the brain,brain of gerbils,provides protection against oxidative stress
same,protection against oxidative stress in the brain,brain of rats,provides protection against oxidative stress
same,therapeutic potential in alpha-synuclein overexpressing mice,[3],exhibited therapeutic potential
O=C(Cc1ccccc1)N[C@@H](CSC(c1ccccc1)(c1ccccc1)c1ccccc1)C(=O)O,3H-glutamate (glutamate release),system xc−,significant elevations
same,uptake of 14C-cystine,system xc−,robust and significant decrease
same,behavioral effects in PPI model,[4],significant behavioral effects
same,behavioral effects in EPM model,[5],significant behavioral effects
CC(=O)N[C@H](CS)C(N)=O,protection of cells from neurotoxicity induced by rotenone,cells,protected cells from neurotoxicity
